In PMC5172606 (Archives of biochemistry and biophysics, 2016):

Target: T1, human soluble epoxide hydrolase (sEH) (Homo sapiens, UniProt P34913)
T1 sequence (P34913 1-555): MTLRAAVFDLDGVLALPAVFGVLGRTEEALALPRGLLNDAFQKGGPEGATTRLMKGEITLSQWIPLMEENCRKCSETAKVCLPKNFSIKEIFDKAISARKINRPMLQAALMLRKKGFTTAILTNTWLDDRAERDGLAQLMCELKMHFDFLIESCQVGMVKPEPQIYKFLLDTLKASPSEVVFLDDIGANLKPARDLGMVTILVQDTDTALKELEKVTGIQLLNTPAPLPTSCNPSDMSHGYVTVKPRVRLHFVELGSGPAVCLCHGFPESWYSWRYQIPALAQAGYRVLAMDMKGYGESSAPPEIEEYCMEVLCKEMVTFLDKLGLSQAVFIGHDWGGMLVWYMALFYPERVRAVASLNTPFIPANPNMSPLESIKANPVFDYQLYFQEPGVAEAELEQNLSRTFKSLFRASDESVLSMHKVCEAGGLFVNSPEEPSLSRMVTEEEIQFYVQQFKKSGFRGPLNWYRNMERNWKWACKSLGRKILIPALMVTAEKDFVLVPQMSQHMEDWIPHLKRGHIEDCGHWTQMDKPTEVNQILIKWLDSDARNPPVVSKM
Test: radiometric assay with [3H]-tDPPO substrate
Type: biochemical

## UC2389
  IC50: 20 ± 0.5 nM
